According to PubChem BioAssay (NCI):
Where “and” joins values, the source holds several entries; their conditions need not be identical. Equal values may be shown once.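 1) Cells in 96-well plates. 2) Compound, 48 h, 5 concentrations. 3) Linear interpolation between surrounding doses. 4) Unreached endpoint = highest concentration. GI50 is the concentration that inhibits growth by half. TGI marks complete inhibition of growth.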

Experiments:
Test in all cases: inhibition of tumour cell growth, NCI panel, 48 h
[1] = test system: PC-3 prostate
[2] = test system: MOLT-4 leukemia
[3] = test system: A498 renal
[4] = test system: COLO 205 colon
[5] = test system: HCT-116 colon
[6] = test system: MALME-3M melanoma
[7] = test system: OVCAR-4 ovarian
[8] = test system: NCI-H460 lung
[9] = test system: A549 NSCLC
[10] = test system: U251 CNS

Structure (SMILES)	GI50 [1]	TGI [1]	GI50 [2]	TGI [2]	GI50 [3]	TGI [3]	GI50 [4]	TGI [4]	GI50 [5]	TGI [5]	GI50 [6]	TGI [6]	GI50 [7]	TGI [7]	GI50 [8]	TGI [8]	GI50 [9]	TGI [9]	GI50 [10]	TGI [10]
COC(=O)[C@@H](C)C[C@H](Cc1ccccc1)NC(=O)c1nc([C@@H](C[C@H](C(C)C)N(C)C(=O)[C@@H](NC(=O)[C@H]2C[C@H](O)CCN2C)C(C)C)OC(C)=O)sc1C(C)C	0.00391 µM	> 11.1 µM	0.0117 µM	> 11.1 µM	0.00752 µM	0.0881 µM	0.00692 µM	0.104 µM	0.004 µM	3.88 µM	0.00537 µM	> 11.1 µM	0.0493 µM	> 11.1 µM	0.0076 µM	> 11.1 µM	0.0519 µM	> 11.1 µM	0.0075 µM	> 11.1 µM
COc1ccc2c(c1)[C@@H](NC(C)=O)CCc1cc(OC)c(OC)c(OC)c1-2		> 4.75 µM		> 42.5 µM		> 100 µM		0.02 µM		0.528 µM		> 100 µM		> 100 µM		> 15.8 µM		> 100 µM		2.02 µM
CC(=O)OCC1C(=O)OCC1C(=O)N1Cc2cc3ccccc3nc2C1 (stereo unspecified)		20.1 µM		4.25 µM		16.4 µM		2.04 µM		3.5 µM		3.16 µM		4.89 µM		28.8 µM		30.6 µM		24.9 µM
O=C(O)/C=C/c1ccc(O)c(O)c1		> 100 µM		> 100 µM		> 100 µM		> 100 µM		> 100 µM		> 100 µM		> 100 µM		> 100 µM		> 100 µM		> 100 µM
N#CCCNc1nonc1-c1nc2ccccc2n1CC(=O)c1ccc(N)cc1	0.0271 µM	> 77.8 µM	0.0301 µM		< 0.01 µM	0.0873 µM	0.022 µM	0.0477 µM	0.0285 µM			> 100 µM	1.88 µM	> 100 µM	0.0317 µM	> 32.9 µM	0.0345 µM	> 100 µM	0.036 µM	> 100 µM
Cn1cc(-c2ccc3nc(-c4ccc(CC(=O)Nc5cc(C(C)(C)C)no5)cc4)cnc3c2)cn1	0.112 µM	> 3 µM	0.102 µM	> 3 µM	0.0439 µM	0.185 µM		> 3 µM	0.029 µM	> 3 µM	0.021 µM	> 0.694 µM	0.0193 µM	> 3 µM	0.0289 µM	> 3 µM	0.0577 µM	> 3 µM	0.0298 µM	> 3 µM
CN(C)CCNC(=O)c1cc2c3cc(Cl)ccc3[nH]c2c2ncccc12	3.62 µM	14.8 µM	1.54 µM	4.27 µM	3.52 µM	13.1 µM	1.97 µM	10.5 µM	1.52 µM	4.68 µM	1.89 µM	3.94 µM	4.89 µM	19.6 µM	2.57 µM	10.7 µM	1.93 µM	4.7 µM	2.49 µM	9.45 µM
NS(=O)(=O)c1ccc(N(/C=C/C(=O)C(F)(F)F)CC(=O)c2ccc(F)cc2)cc1	22.7 µM	81.2 µM	20 µM	72.5 µM	0.0281 µM	0.54 µM	20.5 µM	41.6 µM	22.5 µM	> 100 µM	43.1 µM	78.9 µM	57.1 µM	> 100 µM	28.1 µM	> 100 µM	44.2 µM	> 100 µM	18.4 µM	48.9 µM
CCCCn1c(=O)[nH]c(N)c([C@@H]2c3c([nH]c(=O)n(CCCC)c3=O)Oc3ccc4ccccc4c32)c1=O	1.65 µM	3.23 µM	0.35 µM	1.74 µM	13.7 µM	27.8 µM	2 µM	4.03 µM	1.53 µM	3.02 µM	2.34 µM	7.02 µM	2.26 µM	10.8 µM	2.19 µM	5.05 µM	11.5 µM	24.5 µM	1.73 µM	3.32 µM
Cc1ccc(NC(=O)c2ccc(CN3CCN(C)CC3)cc2)cc1Nc1nc(-c2cccnc2)cs1	5.94 µM and 4.99 µM	19.7 µM and > 10 µM	3.11 µM and 2.67 µM	18.3 µM and 9.64 µM	16 µM and > 10 µM	29.6 µM and > 10 µM	8.14 µM and 3.69 µM	22.6 µM and > 10 µM	3.74 µM and 3.05 µM	14.8 µM and > 10 µM	7.14 µM and 2.26 µM	21 µM and 6.92 µM	11.6 µM and 7.8 µM	26.5 µM and > 10 µM	7.33 µM and 5.34 µM	22.5 µM and > 10 µM	12.1 µM and 8.01 µM	27.1 µM and > 10 µM	3.74 µM and 2.92 µM	14 µM and > 10 µM
Cc1cc(I)cc(CNCCN(C)C)c1O	> 84 µM	> 100 µM	44.6 µM	> 100 µM	61.5 µM	> 100 µM	> 100 µM	> 100 µM	> 68 µM	> 100 µM	> 87.8 µM	> 100 µM	> 93.1 µM	> 100 µM	44.1 µM	> 100 µM	99.7 µM	> 100 µM	73.5 µM	> 100 µM
Sc1cccc2cccnc12	0.577 µM	13.1 µM	0.55 µM	19.7 µM	2.45 µM	8.8 µM	2.32 µM	9.38 µM	0.411 µM	7.8 µM	1.06 µM	14 µM	0.445 µM	12.7 µM	0.389 µM	6.23 µM	0.497 µM	11.5 µM	0.598 µM	13.9 µM
O=[N+]([O-])c1ccc(C2=NCCO2)cc1	> 100 µM	> 100 µM	> 100 µM	> 100 µM	> 100 µM	> 100 µM	> 100 µM	> 100 µM	> 100 µM	> 100 µM	> 100 µM	> 100 µM	> 100 µM	> 100 µM	> 100 µM	> 100 µM	> 100 µM	> 100 µM	> 100 µM	> 100 µM
